According to paper PMC4605326 (Nucleic Acids Research, 2015):

System: BsPif1
Settings: 50 nM enzyme; 67-mer ss oligonucleotide 25 μg/ml; 25 mM Tris-HCl pH 7.5, 50 mM NaCl, 2 mM MgCl2, 2 mM DTT; 37°C

Km: 0.2 µM
SMILES: Nc1ncnc2c1ncn2[C@@H]1O[C@H](COP(=O)(O)OP(=O)(O)OP(=O)(O)O)[C@@H](O)[C@H]1O [ATP]
